Results reported in US20220386613A1, “WEED CONTROL METHOD AND MIXED AGROCHEMICAL COMPOSITION FOR SOIL TREATMENT” (KUMIAI CHEMICAL INDUSTRY CO., LTD., priority 2019, published 2022).

Legend:
Format in all cases: in vivo
[1] = system: barnyard grass (Echinochloa crus-galli); test: Herbicidal effect evaluation test on weeds by soil treatment (barnyard grass); settings: Day 18 after treatment (4.2 L)
Experimental: (§1) In a greenhouse having an average temperature of 25° C. (highest: 30° C., lowest: 25° C.), field soil (sandy loam) was filled in a plastic pot of 11 cm in length, width and depth, and twenty seeds of each of barnyard grass (Echinochloa crus-galli) and redroot amaranth (Amaranthus retroflexus) were sowed and covered with the same soil at a thickness of 1 cm. […] On the day of this chemical treatment, a total of 2-mm rainfall was artificially applied in 30 minutes using an artificial rain maker. Thereafter, barnyard grass and redroot amaranth were grown and, on Day 18 after the treatment, the growth conditions of barnyard grass and redroot amaranth were observed and examined. The rates of reduction in the plant height and the number of leaves relative to an untreated area were each calculated, and the herbicidal effect was determined as a value obtained by adding the thus calculated rates of reduction and dividing this value by 2 for evaluation of the degree of the herbicidal effect. For example, the herbicidal effect is 90% when the plant height was decreased by 90% and the number of leaves was reduced from 10 to 1, while the herbicidal effect is 75% when the plant height was decreased by 70% and the number of leaves was reduced from 5 to 1. It is noted here that, in Table 1, each value of the herbicidal effect represents an average value of two herbicidal effect evaluation tests.

soybean (Glycine max) = test: Evaluation test of crop injury to soybean by soil treatment; settings: 15-mm rainfall
Experimental: In a greenhouse having an average temperature of 25° C. (highest: 30° C., lowest: 25° C.), field soil (sandy loam) was filled in a plastic pot of 11 cm in length, width and depth, and a single seed of soybean (Glycine max) was sowed and covered with the same soil at a thickness of 2 cm. […] On the day of this chemical treatment, a total of 15-mm rainfall was artificially applied in 30 minutes using an artificial rain maker. Thereafter, the soybean was grown and, on Day 15 and Day 39 after the treatment or on Day 13 and Day 26 after the treatment, the growth conditions of the soybean were observed and examined in terms of the plant height and the number of leaves. The rates of reduction in the plant height and the number of leaves relative to an untreated area were each determined, and the thus determined rates of reduction were added and then divided by 2 to calculate the growth inhibition rate for evaluation of the degree of crop injury. […] It is noted here that, in Tables 2 to 5, each growth inhibition rate represents an average value of two crop injury evaluation tests. […] The values observed in the test each indicated an effect lower than the expected value calculated by the following Colby formula at a preferable dosage (see S. R. Colby, Weeds 15(1967), pp. 20-22). Colby's formula defines the expected value (E) as follows for the use of a combination of two chemical agents: (E)=X+Y−XY/100 wherein X represents the growth inhibition rate of an agent a at a concentration of x, and Y represents the growth inhibition rate of an agent b at a concentration of y.

[2] = system: redroot amaranth (Amaranthus retroflexus); test: Herbicidal effect evaluation test on weeds by soil treatment (redroot amaranth); settings: Day 18 after treatment (4 L)
Experimental: as §1

[3] = active component 25 g/ha (saflufenacil)
[4] = active component 50 g/ha (saflufenacil)
[5] = active component 70 g/ha (flumioxazin)
[6] = active component 140 g/ha (flumioxazin)
[7] = active component 160 g/ha (sulfentrazone)
[8] = active component 320 g/ha (sulfentrazone)

In the case of `CC(C)N(C)S(=O)(=O)NC(=O)c1cc(-n2c(=O)cc(C(F)(F)F)n(C)c2=O)c(F)cc1Cl` [Saflufenacil, saflufenacil], the “Herbicidal effect, barnyard grass” value [1, 3] is reported as 15%, the “Herbicidal effect, barnyard grass” value [1, 4] is reported as 65% and the “Soybean growth inhibition rate” value (soybean (Glycine max); Table 4, 25 g/ha (saflufenacil), Day 13 after treatment) is reported as 20%. For the same compound, the “Soybean growth inhibition rate” value (soybean (Glycine max); Table 4, 25 g/ha (saflufenacil), Day 26 after treatment) was 30%, the “Soybean growth inhibition rate” value (soybean (Glycine max); Table 5, 50 g/ha (saflufenacil), Day 13 after treatment) was 30% and the “Soybean growth inhibition rate” value (soybean (Glycine max); Table 5, 50 g/ha (saflufenacil), Day 26 after treatment) was 30%. For the same compound, the “Herbicidal effect, redroot amaranth” value [2, 3] was 100% and the “Herbicidal effect, redroot amaranth” value [2, 4] was 100%.

`C#CCN1C(=O)COc2cc(F)c(N3C(=O)C4=C(CCCC4)C3=O)cc21` [Flumioxazin, flumioxazin] was tested, and the “Herbicidal effect, barnyard grass” value [1, 5] was 100%, the “Herbicidal effect, barnyard grass” value [1, 6] was 100% and the “Soybean growth inhibition rate” value (soybean (Glycine max); Table 2, 70 g/ha (flumioxazin), Day 15 after treatment) was 15%. The “Soybean growth inhibition rate” value (soybean (Glycine max); Table 2, 70 g/ha (flumioxazin), Day 39 after treatment) was 5%, the “Soybean growth inhibition rate” value (soybean (Glycine max); Table 3, 140 g/ha (flumioxazin), Day 15 after treatment) was 25% and the “Soybean growth inhibition rate” value (soybean (Glycine max); Table 3, 140 g/ha (flumioxazin), Day 39 after treatment) was 10%. The “Soybean growth inhibition rate” value (soybean (Glycine max); Table 4, 70 g/ha (flumioxazin), Day 13 after treatment) was 8%, the “Soybean growth inhibition rate” value (soybean (Glycine max); Table 4, 70 g/ha (flumioxazin), Day 26 after treatment) was 10% and the “Herbicidal effect, redroot amaranth” value [2, 5] was 100%. For the same compound, the “Herbicidal effect, redroot amaranth” value [2, 6] was 100%.

For `Cc1nn(-c2cc(NS(C)(=O)=O)c(Cl)cc2Cl)c(=O)n1C(F)F` [Sulfentrazone, sulfentrazone], the “Herbicidal effect, barnyard grass” value [1, 7] was 100%, the “Herbicidal effect, barnyard grass” value [1, 8] was 100% and the “Herbicidal effect, redroot amaranth” value [2, 7] was 100%. For the same compound, the “Herbicidal effect, redroot amaranth” value [2, 8] was 100%.
